Experimental data taken from PubChem BioAssay (NCI).
Where “and” joins values, the source holds several entries; their conditions need not be identical. Equal entries are not always repeated.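 Cultured in 96-well plates, cells were exposed to test compound for 48 hours across five concentrations. GI50 = concentration required for 50% inhibition of growth. TGI: total growth inhibition.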

Columns and labels:
Assay in all cases: NCI anticancer screen, dose series, 48 h
[1] = test system: NCI-H23 lung
[2] = test system: UACC-62 melanoma
[3] = test system: SK-MEL-5 melanoma
[4] = test system: IGROV1 ovarian
[5] = test system: HL-60(TB) leukemia
[6] = test system: HCT-15 colon
[7] = test system: HOP-62 NSCLC
[8] = test system: MALME-3M melanoma
[9] = test system: HCT-116 colon
[10] = test system: T-47D breast
[11] = test system: SNB-75 CNS
[12] = test system: MDA-MB-231 breast
[13] = test system: SK-OV-3 ovarian
[14] = test system: M14 melanoma

SMILES | TGI [1] | TGI [2] | TGI [3] | TGI [4] | TGI [5] | TGI [6] | TGI [7] | TGI [8] | TGI [9] | TGI [10] | TGI [11] | TGI [12] | TGI [13] | TGI [14] | GI50 [5] | GI50 [11]
COc1ccc(C2SCC(=O)N2c2ccc(-n3c(-c4ccccc4)nc4ccccc4c3=O)cc2)cc1OC (stereo not drawn) | > 100 µM | > 100 µM | > 100 µM | > 100 µM | > 100 µM | > 100 µM | > 100 µM | > 100 µM | > 100 µM | > 100 µM | 51.7 µM | > 100 µM | > 100 µM | > 100 µM |  | 
O=[N+]([O-])c1ccc(C2=NOC(c3ccccc3F)N2C23CC4CC(CC(C4)C2)C3)cc1 (stereo not drawn) | > 100 µM | > 100 µM | > 100 µM | > 100 µM | > 100 µM | > 100 µM | > 100 µM | > 100 µM | > 100 µM | > 100 µM | > 100 µM | > 100 µM | > 100 µM | > 100 µM |  | 
COc1ccc(N2C(=O)C3ON(C(C(N)=O)c4ccccc4)C(c4ccc(-c5ccccc5)cc4)C3C2=O)cc1 (stereo not drawn) | > 50 µM | > 50 µM |  | > 50 µM | > 50 µM | > 50 µM | > 50 µM | > 50 µM | > 50 µM | > 50 µM | > 50 µM | > 50 µM | > 50 µM | > 50 µM |  | 
O=c1oc2ccccc2c(O)c1C(c1ccco1)c1c(O)c2ccccc2oc1=O | > 100 µM | 70 µM | > 100 µM | 45.8 µM | > 100 µM | 41.4 µM | > 100 µM | 41.7 µM | > 100 µM | > 100 µM | 95.9 µM | 36 µM |  |  |  | 
CCOC(=O)CCC(NC(=O)c1ccc(Oc2nc3ccc(C(F)(F)F)cc3nc2-c2ccccc2)cc1)C(=O)OCC (stereo not drawn) | > 79.2 µM | > 100 µM | > 100 µM | > 100 µM | > 100 µM | > 100 µM | > 89.5 µM | 44.9 µM | > 100 µM | > 100 µM | 29.1 µM | > 61.1 µM | 37.9 µM | > 100 µM |  | 
O=C1C(CN2CCCCC2)CCCC1CN1CCCCC1 (stereo not drawn) | > 68.4 µM and 55.8 µM | > 67.9 µM | > 31.6 µM and 47.6 µM | > 100 µM | 39.3 µM and > 63.1 µM | 28.2 µM and 42.8 µM | > 100 µM | 11.4 µM and 14.8 µM | 27.6 µM and 29 µM | 3.74 µM | > 100 µM | 34.7 µM | > 100 µM | > 52.2 µM and 39.5 µM | 19 µM and 8.6 µM | > 100 µM and 46.2 µM
CON(C)C(C#N)=C(C#N)C#N | > 10 µM | > 10 µM | > 10 µM | > 10 µM | > 10 µM | > 10 µM | > 10 µM | > 10 µM | > 10 µM | > 10 µM | > 10 µM | > 10 µM | > 10 µM | > 10 µM |  | 
O=[N+]([O-])c1cccc2nc3ccccc3c(NCCc3cccc[n+]3[O-])c12 | 0.0661 µM | 0.211 µM | < 0.01 µM |  | 0.277 µM | 0.0639 µM | 0.245 µM | < 0.034 µM |  | 0.852 µM |  | 0.0538 µM | 0.979 µM | < 0.0172 µM |  | 
